Experimental data taken from US20240416137A1, “PERSONALIZED BIOELECTROMAGNETIC THERAPEUTICS” (OCTANE INNOVATION INC., priority 2021, published 2024).
Entries after “also recorded” stand apart in the source; their conditions may differ.

System: MDA-MB-231 cells
Test: MDA-MB-231 proliferation culture, cell counts with cisplatin and/or EMF exposure
Format: cell-based, human
Settings: for reduction of cell number (cell count): cisplatin 20 μM, positive control, no EMF exposure, 5 days culture
Method: MDA-MB-231 cells, a human triple-negative breast cancer cell line, were obtained at passage 40 (Sigma: 92020424). The culture media used was high glucose DMEM (Gibco: 31053-028) supplemented with 1% GlutaMAX™ (Gibco: 35050-061) and 10% fetal bovine serum (Gibco).
Cells were thawed from frozen (−150° C.), placed in a tube with warm media and spun down for 5 minutes at 240×g. After pelleting the cells, the media was removed, and the cells resuspended and seeded into a T225 flask with 45 mL of media. Cells were placed in an incubator set to 37° C. and 5.0% CO2. Media was exchanged every 2-3 days. Cells proliferated until they reached 80-90% confluency. Upon reaching this threshold. cells were passaged. Cells were washed with DPBS and detached using TrypLE Express (Gibco). The detached cells were neutralized, centrifuged, and seeded in culture vessels at a density of 10,000 cells/cm^2.
For experimental harvests cells were detached as when passaging and neutralized with media. A 100 μL aliquot was taken and used for cell counts. Cells were counted on a NC-200 Nucleocounter (ChemoMetec). The remaining dissociated cells were centrifuged for 2 minutes at 4000 RPM. Following centrifugation, the supernatant was aspirated, and the cell pellets were immediately frozen at −80° C. for future RNA extraction.
Cisplatin is a platinum-based chemotherapy drug that inhibits DNA synthesis. Cisplatin is used in the treatment of many cancers, including breast cancer. Cisplatin (Millipore-Sigma: 232120) was dissolved in DPBS with 140 mM NaCl at a concentration of 1 mg/mL and stored at room temperature, protected from light. The solution was further diluted in culture media to obtain the desired concentration for experiments. DPBS with 140 mM NaCl was used as a vehicle control. Cisplatin at 20 μM was used as a positive control as this concentration reduced the cell number by more than 90%. Lower concentrations of 2 μM and 0.667 μM (one tenth and one thirtieth the concentration of the positive control, respectively) were used in combination with PEMF stimulation.
Cells were exposed, as previously described for mesenchymal stem cells, to a spatially uniform, time-varying magnetic field using Helmholtz coils. A description of the exposure system (coils, signal generator, incubators, etc.) is described in Example One.
Table 3 contains the parameters describing four different fields covering a wide range of shapes, intensities and frequencies. The two sinusoids are simple sine waves with no offset. The pulse waveform has a 10% duty cycle, creating sudden, large changes in the field's magnetic flux density (B). Finally, Experiment 4 consists of pairs of triangular waves with increasing separation equivalent to a decreasing frequency from 36 Hz to 10 Hz. The waveform consists of 15 pairs and has a period of approximately 900 ms. Positive results with Experiments 3 and 4 (described below) ledto repeating the exposures with the addition of a chemotherapy drug cisplatin). Additionally, Experiments 3 and 4 were also performed with “healthy” chondrocytes.
Chemotherapy drugs, including cisplatin, are a commonplace and proven method of treating cancer tumours despite a plethora of side effects. Large doses of these drugs can be a significant monetary and health concern for many patients so any method of reducing the dosage with an adjunct therapy is welcome. To test the combined effect of cisplatin and EMF exposure, two low concentrations (2 μM and 0.667 μM) of cisplatin were added to the culture media of MDA-MB-231 cells subjected to Experiment 3 and 4 exposures. Additionally, cells were cultured with 20 μM of cisplatin and no exposure as a “positive” control. […] The exposed cell groups are plotted relative to the unstimulated vehicle sample and when cultured with the vehicle show the same decrease in cell count as in Figure H (without vehicle). […]

In the case of `N.N.[Cl][Pt][Cl]` [cisplatin, Cisplatin], the “effect on cell growth of adding EMF exposure to cisplatin” value (cisplatin 2 μM and 0.667 μM plus EMF exposure Experiment 3 or 4, statistically significant vs cisplatin alone) is reported as “further inhibited”, the “effect on proliferation / cell count” value (cisplatin 20 μM (high concentration), no EMF stimulation) is reported as “drastic impact on the cell count; also recorded: inhibitory” and the “reduction of cell number (cell count)” value is reported as 90%. For the same compound, the “reduction of cell number (cell count)” value (listed as Cisplatin) was “more than 90%”, the “reduction of cell counts by combined treatment (cisplatin + EMF exposure)” value (cisplatin at 10% of positive control concentration (2 μM) with EMF exposure (Experiment 3 or 4), relative to negative control, 5 days) was “more than 80%” and the “effect on normalized cell count” value (low concentrations of cisplatin (2 μM and 0.667 μM), relative to unstimulated vehicle) was “significantly lowered cell counts”.
